Measured values as given in patent US8883681B2, “Sugarcane harvest aid” (FMC Corporation, priority 2004, dated 2014).

Tested on: sugarcane, variety RB 81-5156 (plant-cane)
Test: Evaluation of carfentrazone-ethyl as a sugarcane ripener (field trial, stems harvested 0-45 DAA; % POL, % BRIX, % PURITY)
Format: in vivo
Details: average of four replications
Method: The following example further illustrates the present invention, but, of course, should not be construed as in any way limiting its scope. The example includes a protocol for the evaluation of certain PPO-inhibiting compounds as ripeners on sugarcane crops, and sets forth certain data indicating the effectiveness of such compounds. Yield is measured in % POL, which is the percent saccharose content in the pressed broth or the cane. Purity and % BRIX (defined as total sugar content including glucose, fructose, saccharose and minerals) are also measures of crop yield, although the saccharose content is of primary concern.
The trial was performed on sugarcane, variety RB 81-5156 (plant-cane). The sugarcane was planted with spacing of 1.40 m between rows, using 30 kg/ha of N; 100 kg/ha of P2O5 and 80 gk/ha of K2O as basic fertilizers, complemented by a covering application of 30 kg/ha of N.
The application of ripeners was performed with pressurized back-pack sprayers, with flat fan nozzle 110.01. The flow was 65 l/ha and the pressure was 35 lb/in^2.
The experimental design used randomized plots with 6 treatments and 4 replications. The size of each experimental plot was 126 m^2 (6 spacing lines of 1.40 m per 15 m of length).
The climatic conditions at the time of the ripener applications were: average temperature of 27° C.; air relative humidity of 73%, wind speed of 4 km/hour.
One linear meter of stems was harvested in each experimental plot at 0 (zero), 15, 30 and 45 days after application (DAA) of the ripener. The sugar was extracted from these stems and submitted for GC and refractometer analysis of percent saccharose, glucose, fructose and minerals corresponding to % POL, % BRIX and % PURITY.
The results, shown as an average of four replications, were compared with results observed in the same trials with trinexapac-ethyl (Moddus).

## CCOC(=O)C(Cl)Cc1cc(-n2nc(C)n(C(F)F)c2=O)c(F)cc1Cl (stereo not drawn) [Carfentrazone-ethyl, ethyl α,2-dichloro-5-[4-(difluoromethyl)-4,5-dihydro-3-methyl-5-oxo-1H-1,2,4-triazol-1-yl]-4-fluorobenzenepropanoate]
30 g ai/ha, 0 DAA
  % BRIX in Pressed Broth of Sugarcane Crop after Application of Ripeners: 14.80%
  % POL in Pressed Broth of Sugarcane Crop after Application of Ripeners: 11.90%
  % POL in the Cane of Sugarcane Crop after Application of Ripeners: 10.38%
  % PURITY in Pressed Broth of Sugarcane Crop after Application of Ripeners: 78.48%
30 g ai/ha, 15 DAA
  % BRIX in Pressed Broth of Sugarcane Crop after Application of Ripeners: 15.40%
  % POL in Pressed Broth of Sugarcane Crop after Application of Ripeners: 12.35%
  % POL in the Cane of Sugarcane Crop after Application of Ripeners: 10.68%
  % PURITY in Pressed Broth of Sugarcane Crop after Application of Ripeners: 79.10%
30 g ai/ha, 30 DAA
  % BRIX in Pressed Broth of Sugarcane Crop after Application of Ripeners: 16.15%
  % POL in Pressed Broth of Sugarcane Crop after Application of Ripeners: 12.75%
  % POL in the Cane of Sugarcane Crop after Application of Ripeners: 10.75%
  % PURITY in Pressed Broth of Sugarcane Crop after Application of Ripeners: 79.50%
30 g ai/ha, 45 DAA
  % BRIX in Pressed Broth of Sugarcane Crop after Application of Ripeners: 16.40%
  % POL in Pressed Broth of Sugarcane Crop after Application of Ripeners: 12.20%
  % POL in the Cane of Sugarcane Crop after Application of Ripeners: 10.75%
  % PURITY in Pressed Broth of Sugarcane Crop after Application of Ripeners: 79.35%
40 g ai/ha, 0 DAA
  % BRIX in Pressed Broth of Sugarcane Crop after Application of Ripeners: 14.50%
  % POL in Pressed Broth of Sugarcane Crop after Application of Ripeners: 12.55%
  % POL in the Cane of Sugarcane Crop after Application of Ripeners: 10.38%
  % PURITY in Pressed Broth of Sugarcane Crop after Application of Ripeners: 78.90%
40 g ai/ha, 15 DAA
  % BRIX in Pressed Broth of Sugarcane Crop after Application of Ripeners: 15.50%
  % POL in Pressed Broth of Sugarcane Crop after Application of Ripeners: 13.18%
  % POL in the Cane of Sugarcane Crop after Application of Ripeners: 10.63%
  % PURITY in Pressed Broth of Sugarcane Crop after Application of Ripeners: 80.28%
40 g ai/ha, 30 DAA
  % BRIX in Pressed Broth of Sugarcane Crop after Application of Ripeners: 16.98%
  % POL in Pressed Broth of Sugarcane Crop after Application of Ripeners: 13.70%
  % POL in the Cane of Sugarcane Crop after Application of Ripeners: 10.98%
  % PURITY in Pressed Broth of Sugarcane Crop after Application of Ripeners: 81.20%
40 g ai/ha, 45 DAA
  % BRIX in Pressed Broth of Sugarcane Crop after Application of Ripeners: 16.90%
  % POL in Pressed Broth of Sugarcane Crop after Application of Ripeners: 13.58%
  % POL in the Cane of Sugarcane Crop after Application of Ripeners: 11.00%
  % PURITY in Pressed Broth of Sugarcane Crop after Application of Ripeners: 81.43%
60 g ai/ha, 0 DAA
  % BRIX in Pressed Broth of Sugarcane Crop after Application of Ripeners: 14.60%
  % POL in Pressed Broth of Sugarcane Crop after Application of Ripeners: 12.55%
  % POL in the Cane of Sugarcane Crop after Application of Ripeners: 10.63%
  % PURITY in Pressed Broth of Sugarcane Crop after Application of Ripeners: 79.35%
60 g ai/ha, 15 DAA
  % BRIX in Pressed Broth of Sugarcane Crop after Application of Ripeners: 15.20%
  % POL in Pressed Broth of Sugarcane Crop after Application of Ripeners: 13.58%
  % POL in the Cane of Sugarcane Crop after Application of Ripeners: 11.38%
  % PURITY in Pressed Broth of Sugarcane Crop after Application of Ripeners: 81.85%
60 g ai/ha, 30 DAA
  % BRIX in Pressed Broth of Sugarcane Crop after Application of Ripeners: 17.75%
  % POL in Pressed Broth of Sugarcane Crop after Application of Ripeners: 14.50%
  % POL in the Cane of Sugarcane Crop after Application of Ripeners: 12.45%
  % PURITY in Pressed Broth of Sugarcane Crop after Application of Ripeners: 83.15%
60 g ai/ha, 45 DAA
  % BRIX in Pressed Broth of Sugarcane Crop after Application of Ripeners: 17.45%
  % POL in Pressed Broth of Sugarcane Crop after Application of Ripeners: 14.35%
  % POL in the Cane of Sugarcane Crop after Application of Ripeners: 12.38%
  % PURITY in Pressed Broth of Sugarcane Crop after Application of Ripeners: 83.15%
80 g ai/ha, 0 DAA
  % BRIX in Pressed Broth of Sugarcane Crop after Application of Ripeners: 14.50%
  % POL in Pressed Broth of Sugarcane Crop after Application of Ripeners: 12.45%
  % POL in the Cane of Sugarcane Crop after Application of Ripeners: 10.80%
  % PURITY in Pressed Broth of Sugarcane Crop after Application of Ripeners: 80.05%
80 g ai/ha, 15 DAA
  % BRIX in Pressed Broth of Sugarcane Crop after Application of Ripeners: 15.80%
  % POL in Pressed Broth of Sugarcane Crop after Application of Ripeners: 14.08%
  % POL in the Cane of Sugarcane Crop after Application of Ripeners: 11.93%
  % PURITY in Pressed Broth of Sugarcane Crop after Application of Ripeners: 82.90%
80 g ai/ha, 30 DAA
  % BRIX in Pressed Broth of Sugarcane Crop after Application of Ripeners: 17.90%
  % POL in Pressed Broth of Sugarcane Crop after Application of Ripeners: 15.05%
  % POL in the Cane of Sugarcane Crop after Application of Ripeners: 13.25%
  % PURITY in Pressed Broth of Sugarcane Crop after Application of Ripeners: 84.45%
80 g ai/ha, 45 DAA
  % BRIX in Pressed Broth of Sugarcane Crop after Application of Ripeners: 17.80%
  % POL in Pressed Broth of Sugarcane Crop after Application of Ripeners: 15.30%
  % POL in the Cane of Sugarcane Crop after Application of Ripeners: 13.35%
  % PURITY in Pressed Broth of Sugarcane Crop after Application of Ripeners: 84.05%
100 g ai/ha, 0 DAA
  % BRIX in Pressed Broth of Sugarcane Crop after Application of Ripeners: 14.90%
  % POL in Pressed Broth of Sugarcane Crop after Application of Ripeners: 12.50%
  % POL in the Cane of Sugarcane Crop after Application of Ripeners: 10.98%
  % PURITY in Pressed Broth of Sugarcane Crop after Application of Ripeners: 81.85%
100 g ai/ha, 15 DAA
  % BRIX in Pressed Broth of Sugarcane Crop after Application of Ripeners: 15.30%
  % POL in Pressed Broth of Sugarcane Crop after Application of Ripeners: 14.70%
  % POL in the Cane of Sugarcane Crop after Application of Ripeners: 12.25%
  % PURITY in Pressed Broth of Sugarcane Crop after Application of Ripeners: 83.78%
100 g ai/ha, 30 DAA
  % BRIX in Pressed Broth of Sugarcane Crop after Application of Ripeners: 18.25%
  % POL in Pressed Broth of Sugarcane Crop after Application of Ripeners: 15.90%
  % POL in the Cane of Sugarcane Crop after Application of Ripeners: 13.83%
  % PURITY in Pressed Broth of Sugarcane Crop after Application of Ripeners: 86.05%
100 g ai/ha, 45 DAA
  % BRIX in Pressed Broth of Sugarcane Crop after Application of Ripeners: 18.60%
  % POL in Pressed Broth of Sugarcane Crop after Application of Ripeners: 15.75%
  % POL in the Cane of Sugarcane Crop after Application of Ripeners: 13.43%
  % PURITY in Pressed Broth of Sugarcane Crop after Application of Ripeners: 83.38%

## CCOC(=O)C1CC(=O)C(=C(O)C2CC2)C(=O)C1 (stereo not drawn) [trinexapac-ethyl, reference compound]
250 g ai/ha, 0 DAA
  % BRIX in Pressed Broth of Sugarcane Crop after Application of Ripeners: 14.93%
  % POL in Pressed Broth of Sugarcane Crop after Application of Ripeners: 12.75%
  % POL in the Cane of Sugarcane Crop after Application of Ripeners: 11.35%
  % PURITY in Pressed Broth of Sugarcane Crop after Application of Ripeners: 81.53%
250 g ai/ha, 15 DAA
  % BRIX in Pressed Broth of Sugarcane Crop after Application of Ripeners: 15.15%
  % POL in Pressed Broth of Sugarcane Crop after Application of Ripeners: 14.25%
  % POL in the Cane of Sugarcane Crop after Application of Ripeners: 12.53%
  % PURITY in Pressed Broth of Sugarcane Crop after Application of Ripeners: 83.73%
250 g ai/ha, 30 DAA
  % BRIX in Pressed Broth of Sugarcane Crop after Application of Ripeners: 17.85%
  % POL in Pressed Broth of Sugarcane Crop after Application of Ripeners: 15.80%
  % POL in the Cane of Sugarcane Crop after Application of Ripeners: 13.45%
  % PURITY in Pressed Broth of Sugarcane Crop after Application of Ripeners: 85.15%
250 g ai/ha, 45 DAA
  % BRIX in Pressed Broth of Sugarcane Crop after Application of Ripeners: 18.45%
  % POL in Pressed Broth of Sugarcane Crop after Application of Ripeners: 15.75%
  % POL in the Cane of Sugarcane Crop after Application of Ripeners: 14.20%
  % PURITY in Pressed Broth of Sugarcane Crop after Application of Ripeners: 84.78%
